Test results reported in patent publication EP4745135A1 (Gluetacs Therapeutics (Shanghai) Co., Ltd., priority 2023, dated 2025).

Key:
CK1α = target: T1, CK1α (Homo sapiens, UniProt P48729+Q96SW2); experiment: Western blot, degradation of substrate protein in hPBMCs; type: cell-based
T1 construct: effects of the compounds of the present disclosure on the expression of target proteins in cells; endogenous in cells; host or cells: human PBMCs (Milecell Biotechnologies)

IKZF1 = target: T2, IKZF1 (Homo sapiens, UniProt Q13422+Q96SW2); experiment: as above; type: cell-based
T2 construct: effects of the compounds of the present disclosure on the expression of target proteins in cells; endogenous in cells; host or cells: human PBMCs (Milecell Biotechnologies)

IKZF2 = target: T3, IKZF2 (Homo sapiens, UniProt Q96SW2+Q9UKS7); experiment: as above; type: cell-based
T3 construct: effects of the compounds of the present disclosure on the expression of target proteins in cells; endogenous in cells; host or cells: human PBMCs (Milecell Biotechnologies)

IKZF3 = target: T4, IKZF3 (Homo sapiens, UniProt Q96SW2+Q9UKT9); experiment: as above; type: cell-based
T4 construct: effects of the compounds of the present disclosure on the expression of target proteins in cells; endogenous in cells; host or cells: human PBMCs (Milecell Biotechnologies)

WEE1 = target: T5, WEE1 (Homo sapiens, UniProt P30291+Q96SW2); experiment: as above; type: cell-based
T5 construct: effects of the compounds of the present disclosure on the expression of target proteins in cells; endogenous in cells; host or cells: human PBMCs (Milecell Biotechnologies)

GSPT1 = experiment: as above; type: cell-based, Human
[1] = target: T6, human Cereblon WT GST-tagged protein (Homo sapiens, UniProt Q96SW2); experiment: CRBN-binding affinity, HTRF (CEREBLON BINDING kit); conditions: for inhibition at 0.5 µM: read-out: Inhibition Rate at 0.5 µM (%); for inhibition at 2 µM: read-out: Inhibition Rate at 2 µM (%)
T6 construct: purchased CISBIO 64BDCRBNPEH

[2] = Western blot, 24 hours of compound treatment, compounds tested at 50 nM and 500 nM (concentration for the table not stated)
[3] = 24 hours treatment, compounds at 50 nM and 500 nM (concentration behind the class not stated)

T4 sequence (Q9UKT9 whole entry): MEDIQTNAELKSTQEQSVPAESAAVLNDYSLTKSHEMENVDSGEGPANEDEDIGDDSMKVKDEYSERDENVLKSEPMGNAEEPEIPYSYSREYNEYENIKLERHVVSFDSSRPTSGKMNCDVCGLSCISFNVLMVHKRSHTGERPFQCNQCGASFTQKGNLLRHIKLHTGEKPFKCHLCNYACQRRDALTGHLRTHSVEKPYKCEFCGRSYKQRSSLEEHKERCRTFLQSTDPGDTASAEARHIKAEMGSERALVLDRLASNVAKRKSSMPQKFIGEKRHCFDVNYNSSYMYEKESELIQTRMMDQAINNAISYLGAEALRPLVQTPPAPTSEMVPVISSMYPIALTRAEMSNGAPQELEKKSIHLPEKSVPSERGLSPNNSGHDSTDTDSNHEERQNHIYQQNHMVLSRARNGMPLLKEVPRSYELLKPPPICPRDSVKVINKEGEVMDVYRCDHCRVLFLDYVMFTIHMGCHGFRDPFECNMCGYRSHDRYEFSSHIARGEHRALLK
T4 sequence (Q96SW2 whole entry): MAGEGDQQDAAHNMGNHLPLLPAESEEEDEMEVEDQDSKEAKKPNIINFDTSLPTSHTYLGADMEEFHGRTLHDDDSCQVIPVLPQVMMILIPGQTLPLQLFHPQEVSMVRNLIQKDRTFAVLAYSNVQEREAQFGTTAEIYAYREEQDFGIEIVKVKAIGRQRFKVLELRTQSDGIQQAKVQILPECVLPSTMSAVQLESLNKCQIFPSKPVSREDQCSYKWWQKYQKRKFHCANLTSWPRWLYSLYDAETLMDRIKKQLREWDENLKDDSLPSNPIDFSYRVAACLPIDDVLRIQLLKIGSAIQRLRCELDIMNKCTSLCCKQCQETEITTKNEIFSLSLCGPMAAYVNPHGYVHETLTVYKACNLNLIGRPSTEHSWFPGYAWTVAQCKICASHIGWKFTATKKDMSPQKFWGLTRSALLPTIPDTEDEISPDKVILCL
T4 sequence (Q16531 whole entry partner): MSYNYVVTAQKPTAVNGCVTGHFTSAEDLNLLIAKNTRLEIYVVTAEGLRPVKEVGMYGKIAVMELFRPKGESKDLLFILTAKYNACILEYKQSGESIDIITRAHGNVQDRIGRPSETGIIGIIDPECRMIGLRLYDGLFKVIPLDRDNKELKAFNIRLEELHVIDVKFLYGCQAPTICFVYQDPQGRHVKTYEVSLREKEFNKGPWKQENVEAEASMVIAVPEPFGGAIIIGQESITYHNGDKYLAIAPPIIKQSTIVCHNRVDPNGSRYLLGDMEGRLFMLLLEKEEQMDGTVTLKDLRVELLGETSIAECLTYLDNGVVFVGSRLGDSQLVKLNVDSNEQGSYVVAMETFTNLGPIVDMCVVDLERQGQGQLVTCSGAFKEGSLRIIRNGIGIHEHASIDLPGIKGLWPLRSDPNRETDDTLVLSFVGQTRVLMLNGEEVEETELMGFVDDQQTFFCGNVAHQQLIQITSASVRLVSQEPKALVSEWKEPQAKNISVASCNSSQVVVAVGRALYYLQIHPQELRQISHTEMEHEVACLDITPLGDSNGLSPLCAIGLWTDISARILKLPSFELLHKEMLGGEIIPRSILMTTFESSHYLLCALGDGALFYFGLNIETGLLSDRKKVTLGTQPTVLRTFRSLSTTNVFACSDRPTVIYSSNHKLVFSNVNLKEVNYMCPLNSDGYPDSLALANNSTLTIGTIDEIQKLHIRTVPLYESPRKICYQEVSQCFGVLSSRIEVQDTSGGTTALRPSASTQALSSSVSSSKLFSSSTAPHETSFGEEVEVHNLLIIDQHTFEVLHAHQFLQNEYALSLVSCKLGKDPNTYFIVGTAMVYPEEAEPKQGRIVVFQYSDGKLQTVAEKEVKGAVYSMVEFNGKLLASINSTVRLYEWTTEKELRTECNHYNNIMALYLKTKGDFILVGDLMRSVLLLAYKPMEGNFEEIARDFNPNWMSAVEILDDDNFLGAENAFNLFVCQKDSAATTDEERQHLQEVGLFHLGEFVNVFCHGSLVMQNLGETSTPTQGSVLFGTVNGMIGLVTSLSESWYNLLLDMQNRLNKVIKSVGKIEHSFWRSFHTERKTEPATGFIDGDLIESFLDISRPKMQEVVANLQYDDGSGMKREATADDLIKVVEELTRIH
T2 sequence (Q13422 whole entry): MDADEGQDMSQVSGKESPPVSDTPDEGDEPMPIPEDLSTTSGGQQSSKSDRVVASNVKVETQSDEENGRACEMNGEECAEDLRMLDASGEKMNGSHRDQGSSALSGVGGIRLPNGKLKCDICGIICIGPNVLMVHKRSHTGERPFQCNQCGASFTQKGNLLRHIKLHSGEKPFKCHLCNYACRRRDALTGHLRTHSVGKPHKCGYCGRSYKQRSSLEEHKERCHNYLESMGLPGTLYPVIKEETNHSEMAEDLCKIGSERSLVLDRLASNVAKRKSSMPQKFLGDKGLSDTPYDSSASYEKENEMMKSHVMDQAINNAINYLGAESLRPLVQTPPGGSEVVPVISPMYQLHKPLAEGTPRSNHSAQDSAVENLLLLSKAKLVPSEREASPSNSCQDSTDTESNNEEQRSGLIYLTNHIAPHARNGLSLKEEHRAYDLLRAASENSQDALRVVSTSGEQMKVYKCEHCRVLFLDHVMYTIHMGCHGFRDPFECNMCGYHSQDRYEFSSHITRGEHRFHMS
T2 sequence (Q96SW2 whole entry): as the sequence (Q96SW2 whole entry) above
T2 sequence (Q16531 whole entry partner): as the sequence (Q16531 whole entry partner) above
T1 sequence (P48729 whole entry): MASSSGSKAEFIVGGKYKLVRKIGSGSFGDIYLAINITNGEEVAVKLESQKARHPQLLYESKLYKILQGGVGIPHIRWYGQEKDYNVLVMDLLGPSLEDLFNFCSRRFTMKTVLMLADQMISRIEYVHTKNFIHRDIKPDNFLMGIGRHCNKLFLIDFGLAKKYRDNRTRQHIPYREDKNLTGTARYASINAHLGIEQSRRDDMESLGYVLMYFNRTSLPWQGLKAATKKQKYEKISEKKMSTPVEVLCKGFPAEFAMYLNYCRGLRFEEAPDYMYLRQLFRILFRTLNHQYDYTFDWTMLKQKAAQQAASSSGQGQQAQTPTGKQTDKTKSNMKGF
T1 sequence (Q96SW2 whole entry): as the sequence (Q96SW2 whole entry) above
T1 sequence (Q16531 whole entry partner): as the sequence (Q16531 whole entry partner) above
T6 sequence (Q96SW2 whole entry): as the sequence (Q96SW2 whole entry) above
T5 sequence (P30291 whole entry): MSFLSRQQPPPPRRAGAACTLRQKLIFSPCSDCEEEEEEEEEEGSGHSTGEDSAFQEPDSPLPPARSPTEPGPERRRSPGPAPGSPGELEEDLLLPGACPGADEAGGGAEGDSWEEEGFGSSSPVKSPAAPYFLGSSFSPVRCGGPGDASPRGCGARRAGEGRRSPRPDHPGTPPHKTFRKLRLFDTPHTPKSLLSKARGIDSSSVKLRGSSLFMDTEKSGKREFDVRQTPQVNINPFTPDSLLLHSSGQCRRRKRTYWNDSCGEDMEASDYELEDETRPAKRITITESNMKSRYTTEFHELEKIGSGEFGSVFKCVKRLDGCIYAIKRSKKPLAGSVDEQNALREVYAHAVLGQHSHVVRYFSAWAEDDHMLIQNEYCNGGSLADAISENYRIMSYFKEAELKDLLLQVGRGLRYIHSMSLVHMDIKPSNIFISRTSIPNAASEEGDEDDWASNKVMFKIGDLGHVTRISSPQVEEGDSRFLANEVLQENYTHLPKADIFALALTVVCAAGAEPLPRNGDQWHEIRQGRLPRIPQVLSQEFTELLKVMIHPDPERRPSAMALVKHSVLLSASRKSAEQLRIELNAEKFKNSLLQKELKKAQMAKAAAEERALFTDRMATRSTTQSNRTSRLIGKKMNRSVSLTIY
T5 sequence (Q96SW2 whole entry): as the sequence (Q96SW2 whole entry) above
T5 sequence (Q16531 whole entry partner): as the sequence (Q16531 whole entry partner) above
T3 sequence (Q9UKS7 whole entry): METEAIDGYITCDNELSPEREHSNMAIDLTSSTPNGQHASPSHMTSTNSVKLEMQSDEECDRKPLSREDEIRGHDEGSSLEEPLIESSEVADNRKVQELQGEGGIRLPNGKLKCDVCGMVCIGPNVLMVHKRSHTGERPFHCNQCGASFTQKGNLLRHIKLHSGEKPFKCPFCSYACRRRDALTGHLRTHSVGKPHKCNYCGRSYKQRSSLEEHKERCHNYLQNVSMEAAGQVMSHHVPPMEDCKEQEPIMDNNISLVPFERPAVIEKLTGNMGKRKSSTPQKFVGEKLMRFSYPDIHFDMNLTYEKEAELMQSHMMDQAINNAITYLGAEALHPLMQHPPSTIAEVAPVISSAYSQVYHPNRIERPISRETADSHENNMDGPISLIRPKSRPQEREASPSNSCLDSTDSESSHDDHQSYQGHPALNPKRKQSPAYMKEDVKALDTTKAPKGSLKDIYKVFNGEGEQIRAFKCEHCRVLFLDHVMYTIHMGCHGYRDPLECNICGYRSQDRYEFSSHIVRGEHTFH
T3 sequence (Q96SW2 whole entry): as the sequence (Q96SW2 whole entry) above
T3 sequence (Q16531 whole entry partner): as the sequence (Q16531 whole entry partner) above

Row | SMILES | CK1α substrate protein remaining % (CK1α; [2]) | IKZF 1 substrate protein remaining % (IKZF1; [2]) | IKZF2 substrate protein remaining % (IKZF2; [2]) | IKZF3 substrate protein remaining % (IKZF3; [2]) | Wee1 substrate protein remaining % (WEE1; [2]) | GSPT1 substrate protein remaining % (GSPT1; [2]) | inhibition at 0.5 µM [1] [%] | inhibition at 2 µM [1] [%] | CK1α substrate protein remaining % (CK1α; [3]) | IKZF 1 substrate protein remaining % (IKZF1; [3]) | IKZF2 substrate protein remaining % (IKZF2; [3]) | IKZF3 substrate protein remaining % (IKZF3; [3]) | Wee1 substrate protein remaining % (WEE1; [3]) | GSPT1 substrate protein remaining % (GSPT1; [3])
1 | Cc1cccc(N2CCN(Cc3cccc4c3CN(C3CCC(=O)NC3=O)C4=S)CC2)c1 (stereo not drawn) [GT-08498, 3-(1-thioxo-4-((4-(m-tolyl)piperazin-1-yl)methyl)isoindolin-2-yl)piperidine-2,6-dione] | B (80%< substrate protein remaining %≤ 100%) | B (80%< substrate protein remaining %≤ 100%) | A (0% ≤ substrate protein remaining % ≤ 80%) | B (80%< substrate protein remaining %≤ 100%) | A (0% ≤ substrate protein remaining % ≤ 80%) | A (0% ≤ substrate protein remaining % ≤ 80%) | 40 to 53 | 60 to 80 | – | – | – | – | – | –
2 | O=C1CCC(N2Cc3c(CN4CCN(c5c(F)cccc5F)CC4)cccc3C2=S)C(=O)N1 (stereo not drawn) [GT-08630, 3-(4-((4-(2,6-difluorophenyl)piperazin-1-yl)methyl)-1-thioxoisoindolin-2-yl)piperidine-2,6-dione] | B (80%< substrate protein remaining %≤ 100%) | B (80%< substrate protein remaining %≤ 100%) | B (80%< substrate protein remaining %≤ 100%) | B (80%< substrate protein remaining %≤ 100%) | A (0% ≤ substrate protein remaining % ≤ 80%) | A (0% ≤ substrate protein remaining % ≤ 80%) | 53 to 60 | 60 to 80 | – | – | – | – | – | –
3 | O=C1CCC(N2Cc3c(CN4CCN(c5ccc(F)cc5F)CC4)cccc3C2=S)C(=O)N1 (stereo not drawn) [GT-08503, 3-(4-((4-(2,4-difluorophenyl)piperazin-1-yl)methyl)-1-thioxoisoindolin-2-yl)piperidine-2,6-dione] | B (80%< substrate protein remaining %≤ 100%) | B (80%< substrate protein remaining %≤ 100%) | B (80%< substrate protein remaining %≤ 100%) | B (80%< substrate protein remaining %≤ 100%) | A (0% ≤ substrate protein remaining % ≤ 80%) | A (0% ≤ substrate protein remaining % ≤ 80%) | 40 to 53 | 60 to 80 | – | – | – | – | – | –
4 | O=C1CCC(N2Cc3cc(CN4CCC(c5noc6ccccc56)CC4)ccc3C2=S)C(=O)N1 (stereo not drawn) [GT-09266, 3-(5-((4-(benzo[d]isoxazol-3-yl)piperidin-1-yl)methyl)-1-thioxoisoindolin-2-yl)piperidine-2,6-dione] | – | – | – | – | – | – | 60 to 80 | 80 to 100 | B (80%< substrate protein remaining %≤ 100%) | B (80%< substrate protein remaining %≤ 100%) | B (80%< substrate protein remaining %≤ 100%) | B (80%< substrate protein remaining %≤ 100%) | B (80%< substrate protein remaining %≤ 100%) | A (0% ≤ substrate protein remaining % ≤ 80%)
5 | Cc1cccc(N2CCN(Cc3cccc4c3CN(C3CCC(=O)NC3=O)C4=S)CC2)n1 (stereo not drawn) [GT-08692, 3-(4-((4-(6-methylpyridin-2-yl)piperazin-1-yl)methyl)-1-thioxoisoindolin-2-yl)piperidine-2,6-dione] | B (80%< substrate protein remaining %≤ 100%) | B (80%< substrate protein remaining %≤ 100%) | B (80%< substrate protein remaining %≤ 100%) | B (80%< substrate protein remaining %≤ 100%) | A (0% ≤ substrate protein remaining % ≤ 80%) | B (80%< substrate protein remaining %≤ 100%) | 53 to 60 | 80 to 100 | – | – | – | – | – | –
6 | O=C1CCC(N2Cc3c(CN4CCN(c5ccncc5Cl)CC4)cccc3C2=S)C(=O)N1 (stereo not drawn) [GT-08731, 3-(4-((4-(3-chloropyridin-4-yl)piperazin-1-yl)methyl)-1-thioxoisoindolin-2-yl)piperidine-2,6-dione] | B (80%< substrate protein remaining %≤ 100%) | B (80%< substrate protein remaining %≤ 100%) | B (80%< substrate protein remaining %≤ 100%) | B (80%< substrate protein remaining %≤ 100%) | A (0% ≤ substrate protein remaining % ≤ 80%) | A (0% ≤ substrate protein remaining % ≤ 80%) | 60 to 80 | 80 to 100 | – | – | – | – | – | –
7 | O=C1CCC(N2Cc3c(CN4CCC(c5ncnc6sc(-c7ccccc7)cc56)CC4)cccc3C2=S)C(=O)N1 (stereo not drawn) [GT-08929, 3-(4-((4-(6-phenylthieno[2,3-d]pyrimidin-4-yl)piperidin-1-yl)methyl)-1-thioxoisoindolin-2-yl)piperidine-2,6-dione] | – | – | – | – | – | – | 30 to 40 | 60 to 80 | B (80%< substrate protein remaining %≤ 100%) | B (80%< substrate protein remaining %≤ 100%) | B (80%< substrate protein remaining %≤ 100%) | B (80%< substrate protein remaining %≤ 100%) | A (0% ≤ substrate protein remaining % ≤ 80%) | B (80%< substrate protein remaining %≤ 100%)
8 | O=C1CCC(N2Cc3c(CN4CCC(N(c5ccccc5)c5ccccc5)CC4)cccc3C2=S)C(=O)N1 (stereo not drawn) [GT-08209, 3-(4-((4-(diphenylamino)piperidin-1-yl)methyl)-1-thioxoisoindolin-2-yl)piperidine-2,6-dione] | B (80%< substrate protein remaining %≤ 100%) | B (80%< substrate protein remaining %≤ 100%) | B (80%< substrate protein remaining %≤ 100%) | B (80%< substrate protein remaining %≤ 100%) | A (0% ≤ substrate protein remaining % ≤ 80%) | A (0% ≤ substrate protein remaining % ≤ 80%) | 60 to 80 | 80 to 100 | – | – | – | – | – | –
9 | CC1(C)CC(c2ccc(Cl)cc2)=C(CN2CCN(Cc3ccc4c(c3)CN(C3CCC(=O)NC3=O)C4=S)CC2)CO1 (stereo not drawn) [GT-08167, 3-(5-((4-((4-(4-chlorophenyl)-6,6-dimethyl-5,6-dihydro-2H-pyran-3-yl)methyl)piperazin-1-yl)methyl)-1-thioxoisoindolin-2-yl)piperidine-2,6-dione] | – | – | – | – | – | – | 40 to 53 | 80 to 100 | B (80%< substrate protein remaining %≤ 100%) | B (80%< substrate protein remaining %≤ 100%) | A (0% ≤ substrate protein remaining % ≤ 80%) | A (0% ≤ substrate protein remaining % ≤ 80%) | A (0% ≤ substrate protein remaining % ≤ 80%) | A (0% ≤ substrate protein remaining % ≤ 80%)
10 | O=C1CCC(N2Cc3c(CN4CCN(c5ccnc(Cl)c5Cl)CC4)cccc3C2=S)C(=O)N1 (stereo not drawn) [GT-08735, 3-(4-((4-(2,3-dichloropyridin-4-yl)piperazin-1-yl)methyl)-1-thioxoisoindolin-2-yl)piperidine-2,6-dione] | B (80%< substrate protein remaining %≤ 100%) | B (80%< substrate protein remaining %≤ 100%) | B (80%< substrate protein remaining %≤ 100%) | B (80%< substrate protein remaining %≤ 100%) | A (0% ≤ substrate protein remaining % ≤ 80%) | B (80%< substrate protein remaining %≤ 100%) | 60 to 80 | 80 to 100 | – | – | – | – | – | –
11 | O=C1CCC(N2Cc3c(CN4CCC(c5cccc6c(F)cccc56)CC4)cccc3C2=S)C(=O)N1 (stereo not drawn) [GT-08855, 3-(4-((4-(5-fluoronaphthalen-1-yl)piperidin-1-yl)methyl)-1-thioxoisoindolin-2-yl)piperidine-2,6-dione] | – | – | – | – | – | – | 30 to 40 | 60 to 80 | B (80%< substrate protein remaining %≤ 100%) | B (80%< substrate protein remaining %≤ 100%) | B (80%< substrate protein remaining %≤ 100%) | B (80%< substrate protein remaining %≤ 100%) | A (0% ≤ substrate protein remaining % ≤ 80%) | A (0% ≤ substrate protein remaining % ≤ 80%)
12 | O=C1CCC(N2Cc3c(CN4CCN(c5ccnc(Cl)c5F)CC4)cccc3C2=S)C(=O)N1 (stereo not drawn) [GT-08732, 3-(4-((4-(2-chloro-3-fluoropyridin-4-yl)piperazin-1-yl)methyl)-1-thioxoisoindolin-2-yl)piperidine-2,6-dione] | B (80%< substrate protein remaining %≤ 100%) | B (80%< substrate protein remaining %≤ 100%) | B (80%< substrate protein remaining %≤ 100%) | B (80%< substrate protein remaining %≤ 100%) | A (0% ≤ substrate protein remaining % ≤ 80%) | B (80%< substrate protein remaining %≤ 100%) | 60 to 80 | 80 to 100 | – | – | – | – | – | –
